From PubChem BioAssay (NCI)
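Step 1: Grow cells in 96-well plates. Step 2: Expose to compound for 48 hours at 5 concentrations. Step 3: Interpolate endpoints linearly; if unreached, use highest concentration. Definition used: TGI = concentration required for complete inhibition of growth.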

Key:
Assay in all cases: NCI anticancer screen, dose series, 48 h
M14 melanoma = tested on: M14 melanoma
EKVX NSCLC = tested on: EKVX NSCLC
OVCAR-5 ovarian = tested on: OVCAR-5 ovarian
T-47D breast = tested on: T-47D breast
ACHN renal = tested on: ACHN renal
CCRF-CEM leukemia = tested on: CCRF-CEM leukemia
UACC-62 melanoma = tested on: UACC-62 melanoma
MDA-N = tested on: MDA-N
UACC-257 melanoma = tested on: UACC-257 melanoma
HL-60(TB) leukemia = tested on: HL-60(TB) leukemia
MCF7 breast = tested on: MCF7 breast
DU-145 prostate = tested on: DU-145 prostate
786-0 renal = tested on: 786-0 renal
SK-MEL-2 melanoma = tested on: SK-MEL-2 melanoma
HOP-62 NSCLC = tested on: HOP-62 NSCLC
NCI-H522 lung = tested on: NCI-H522 lung
K-562 leukemia = tested on: K-562 leukemia
SK-MEL-28 melanoma = tested on: SK-MEL-28 melanoma
HOP-92 NSCLC = tested on: HOP-92 NSCLC
MDA-MB-231 breast = tested on: MDA-MB-231 breast

| Structure (SMILES) | TGI (M14 melanoma) [µM] | TGI (EKVX NSCLC) [µM] | TGI (OVCAR-5 ovarian) [µM] | TGI (T-47D breast) [µM] | TGI (ACHN renal) [µM] | TGI (CCRF-CEM leukemia) [µM] | TGI (UACC-62 melanoma) [µM] | TGI (MDA-N) [µM] | TGI (UACC-257 melanoma) [µM] | TGI (HL-60(TB) leukemia) [µM] | TGI (MCF7 breast) [µM] | TGI (DU-145 prostate) [µM] | TGI (786-0 renal) [µM] | TGI (SK-MEL-2 melanoma) [µM] | TGI (HOP-62 NSCLC) [µM] | TGI (NCI-H522 lung) [µM] | TGI (K-562 leukemia) [µM] | TGI (SK-MEL-28 melanoma) [µM] | TGI (HOP-92 NSCLC) [µM] | TGI (MDA-MB-231 breast) [µM] |
| --- | --- | --- | --- | --- | --- | --- | --- | --- | --- | --- | --- | --- | --- | --- | --- | --- | --- | --- | --- | --- |
| CCC(C)OC(=O)/C(Br)=C1/OC(=O)c2ccccc2-c2ccccc21 (stereo not drawn) | > 100 | > 100 | > 100 | > 100 | > 100 | 52 | 57.5 | > 100 | > 100 | > 100 | > 100 | > 100 | > 100 | > 100 | 35.1 | 44.3 | 40.6 | 86.7 | 81.9 |  |
| CN(C)CCC(=O)c1ccccc1 | 52.6 | > 68.8 | > 57.6 |  | > 69.2 | 62.4 | > 68.1 |  | > 59 | > 64.2 |  |  | 44.2 | > 84.4 | > 100 | 1.06 | 85.4 | > 67.4 | 44.6 |  |
| Cc1ccccc1N1C(=O)C2C=CC(n3[nH]c(=O)n(Cc4ccccc4)c3=O)CC2C1=O (stereo not drawn) | > 100 | > 100 | > 100 |  | > 100 | > 100 | > 100 |  | > 100 | > 100 |  |  | > 100 | > 100 | > 100 | > 100 | > 100 | > 100 | > 100 |  |
| CCCNC(=S)NNC(=O)CSc1nc(-c2ccccc2)c(-c2ccccc2)[nH]1 | 89.6 | 89.7 | > 100 |  | > 100 | > 100 | > 100 |  | > 100 | > 100 |  |  | > 100 | > 100 | > 100 | 78.1 |  | > 100 | 97.8 |  |
| CSc1nc(Nc2cccc(C(F)(F)F)c2)c2c(N)nn(C)c2n1 | > 100 |  | > 100 | > 100 | > 100 | > 100 | > 100 | > 100 | > 100 |  |  | > 100 | > 100 | > 100 | > 100 | > 100 | > 100 | > 100 |  | > 100 |
| OC1C#CCSCC#C/C=C\1 (stereo not drawn) | > 100 | > 100 | > 100 |  | > 100 | 98.4 | > 100 | > 100 | > 100 | 71.8 | > 100 | > 100 | 39.5 | > 100 | > 100 | 32.9 | 75.9 | > 100 | > 100 | > 100 |
| O=C1C(c2c(O)[nH]c3ccc(F)cc23)=Nc2ccccc21 | > 100 | > 100 | > 100 |  | > 100 | > 100 | > 100 | > 100 | > 100 |  | > 100 | > 100 | > 100 | > 100 | > 100 | > 100 | > 100 | > 100 | 65.6 | 54.6 |
| O=[N+]([O-])c1ccc2c(c1)C1=C(CO2)Cc2ccccc2O1 | 37.4 | > 100 | 54.7 | > 100 | 29.9 | > 100 | 50.7 | 33.1 | 33.5 |  |  | > 100 | 39.9 | > 100 | > 100 | 54.5 | > 100 |  | 81.5 | 51.4 |
| CN1C2CCC1CC(=CCOC(c1ccc(F)cc1)c1ccc(F)cc1)C2 | 31.9 | 40.8 | 36 | 35.1 | 31.8 | > 100 | 29.5 |  | 31.7 | 43.5 | 34.6 | 30.5 | 27.9 | 39.4 | 32.2 | 24.7 | 28 | 47.9 |  | 37.1 |
| CC(C)(C)OC(=O)[C@H]1CCC(=S)N1Cc1ccccc1 | > 100 | > 100 | > 100 |  | > 100 | > 100 | > 100 | > 100 | > 100 | > 100 | > 100 | > 100 | > 100 | > 100 |  | > 100 |  | > 100 | > 100 | > 100 |
| NNC(=O)c1n[nH]nc1C(=O)NN | > 100 |  | > 100 |  |  | > 100 |  | > 100 | > 100 | > 100 | > 100 | > 100 | 28.8 | > 100 | > 100 |  | > 100 |  |  | > 100 |
| COc1ccc(/C=C2\N=C(SC)N(CN3CCOCC3)C2=O)cc1 | > 100 | > 100 | > 100 |  | > 100 | > 100 | > 100 | > 100 |  | > 100 | > 100 | > 100 | > 100 | > 100 | > 100 | > 100 | > 100 | > 100 | 67.4 | > 100 |
| CN=C1CC2c3cc(OC)c(OC)cc3CCN2C2=C1C(=O)CC(C)(C)C2 (stereo not drawn) |  | > 100 | > 100 |  | > 100 | > 100 |  |  | > 100 | > 100 |  |  | > 100 | > 100 |  | > 100 |  | > 100 | > 100 |  |
| O=c1c(/C=C/c2c(O)ccc3ccccc23)nnc2sc(-c3cccc(Br)c3)nn12 | 66.4 | 98.1 | > 100 | 37.3 | > 100 | 18.6 | 68.6 | > 100 | > 100 | 26.6 | 84.4 | 45.3 | > 100 | > 100 | > 100 | 42.3 | 77.7 | > 100 |  |  |
